This note sets out measurements from the NIST ThermoML archive (doi:10.1016/j.tca.2009.08.016).

Numbers after ± are expanded uncertainties.

For data set [1] the following is noted: Crystal; DTA.
Data set [2] can be described thus: Molar enthalpy of transition or fusion. The settings on record: Crystal; DSC.

As for `CCN(CC)CC(=O)Nc1c(C)cccc1C` [2-(diethylamino)-N-(2,6-dimethylphenyl)acetamide], the Normal melting temperature in data set [1] was determined as 67.54 ± 1.1 °C. Moreover, in data set [2], the “Molar enthalpy of transition or fusion” value was determined as 3.92 ± 0.12 kcal/mol.
With `O=C(Oc1ccccc1)c1ccccc1O` [phenyl salicylate], the Normal melting temperature in data set [1] was found to be 41.93 ± 1.1 °C. Besides, the “Molar enthalpy of transition or fusion” value in data set [2] was found to be 4.59 ± 0.239 kcal/mol.
